The values below come from patent publication US6838479B2, “Amidine inhibitors of serine proteases” (Genentech, Inc., priority 2000, dated 2005).

“And” between values parts separate entries of the source, which are not always exact repeats. Equal entries are not always repeated. Bounds are passed on as bounds.

Common to all, as to format: biochemical
One assay has as its target human Plasma Kallikrein (Homo sapiens, UniProt P03952). In words: Plasma Kallikrein assay (chromogenic, Ki). Particulars: 1.5 nM plasma kallikrein, S-2302 0.3 mM; read-out: binding affinity to serine proteases: kallikrein. The protocol:
(§1) Factor Xa, Thrombin, and Plasma Kallikrein Assays
(§2) These procedures are used to determine the constant of inhibition (Ki) for a sample compound of the invention.
(§3) Procedure • 1. Add 50 μL sample to each well. • 2. Add 50 μL appropriately diluted coagulation factor to each well. • 3. Incubate for 5 minutes at room temperature with gentle agitation. • 4. Add 50 μL appropriately diluted substrate to each well. • 5. Agitate plate for 20-25 sec. • 6. Monitor absorbance at 405 nm every 10 sec for a total of 5 minutes at room temperature. • 7. Calculate Vmax over 10 points.

In a further assay the target is T1, human Thrombin (Homo sapiens, UniProt P00734).
T1 construct: rapidly converts prothrombin to thrombin
In words: Thrombin assay (chromogenic, Ki). Particulars: 8.2 nM thrombin, S-2266 0.3 mM; read-out: binding affinity to serine proteases: thrombin. The protocol: as §1, §2, §3

A further assay deals with T2, trypsin (Bos taurus, UniProt P00760).
T2 sequence (P00760 24-246): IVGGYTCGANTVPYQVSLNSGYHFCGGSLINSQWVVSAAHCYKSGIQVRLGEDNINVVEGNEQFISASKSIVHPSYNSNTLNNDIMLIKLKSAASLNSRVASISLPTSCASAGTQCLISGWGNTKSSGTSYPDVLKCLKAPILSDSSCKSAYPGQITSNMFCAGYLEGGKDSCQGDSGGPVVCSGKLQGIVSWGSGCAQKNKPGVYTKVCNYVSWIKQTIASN
Briefly: Trypsin binding affinity. Particulars: read-out: binding affinity to serine proteases: trypsin.

A further assay has as its target T3, human Factor Xa (Homo sapiens, UniProt P00742).
T3 construct: This complex converts factor X to Xa
Briefly: Factor Xa assay (chromogenic, Ki). Particulars: 3.3 nM Xa, S-2222 0.5 mM; read-out: binding affinity to serine proteases: Xa. The protocol:
as §1, §2, §3

Assay [1] addresses tissue factor/factor VIIa (Homo sapiens, UniProt P08709). Briefly: Tissue Factor/Factor VIIa antagonist assay (chromogenic, Ki). Particulars: 10 nM VIIa, 30 nM TF, Chromozym-tPA 1.33 mM; read-out: binding affinity to serine proteases: VIIa. The method, then: Tissue Factor/Factor VIIa Antagonist Assay
This procedure is used to determine the constant of inhibition (Ki) for a sample compound of the invention.
Procedure • 1. Prepare a solution of 2 μg/mL (90 nM) tissue factor and 1.5 μg/mL (30 nM) factor VIIa in assay buffer with CaCl2. • 2. Incubate for 15 minutes at room temperature. • 3. Add 50 μL sample to each well. • 4. Add 50 μL tissue factor/factor VIIa solution to each well. • 5. Incubate for 15 minutes at room temperature with gentle agitation. • 6. Add 50 μL substrate to each well. • 7. Agitate plate for 20-25 sec. • 8. Monitor absorbance at 405 nm every 10 see for a total of 5 minutes at room temperature. • 9. Calculate Vmax over 10 points.

The next assay has as its target plasmin (Homo sapiens, UniProt P00747). In words: Plasmin binding affinity. The settings on record: read-out: binding affinity to serine proteases: plasmin.

tissue factor/factor VIIa, sequence (P08709 213-466 limits assumed): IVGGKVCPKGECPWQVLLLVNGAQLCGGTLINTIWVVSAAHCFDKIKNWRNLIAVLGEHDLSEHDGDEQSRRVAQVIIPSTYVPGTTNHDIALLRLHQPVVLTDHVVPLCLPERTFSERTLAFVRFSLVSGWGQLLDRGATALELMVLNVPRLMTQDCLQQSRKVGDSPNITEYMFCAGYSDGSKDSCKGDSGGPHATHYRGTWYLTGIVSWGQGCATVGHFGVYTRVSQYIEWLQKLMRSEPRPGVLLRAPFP
tissue factor/factor VIIa, sequence (P08709 61-212 limits assumed): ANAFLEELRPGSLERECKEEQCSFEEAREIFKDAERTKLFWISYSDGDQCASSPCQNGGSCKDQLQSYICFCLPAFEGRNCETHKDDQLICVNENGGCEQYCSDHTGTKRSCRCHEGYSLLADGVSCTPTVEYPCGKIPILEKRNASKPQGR
tissue factor/factor VIIa, sequence (P13726 33-251 partner limits assumed): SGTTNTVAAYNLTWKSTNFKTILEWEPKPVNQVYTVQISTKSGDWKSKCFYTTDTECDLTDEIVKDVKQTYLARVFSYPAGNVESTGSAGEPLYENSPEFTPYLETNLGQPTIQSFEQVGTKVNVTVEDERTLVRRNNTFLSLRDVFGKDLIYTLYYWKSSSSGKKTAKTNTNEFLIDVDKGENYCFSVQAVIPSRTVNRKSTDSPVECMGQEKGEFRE
plasmin, sequence (P00747 581-810 limits assumed, species assumed): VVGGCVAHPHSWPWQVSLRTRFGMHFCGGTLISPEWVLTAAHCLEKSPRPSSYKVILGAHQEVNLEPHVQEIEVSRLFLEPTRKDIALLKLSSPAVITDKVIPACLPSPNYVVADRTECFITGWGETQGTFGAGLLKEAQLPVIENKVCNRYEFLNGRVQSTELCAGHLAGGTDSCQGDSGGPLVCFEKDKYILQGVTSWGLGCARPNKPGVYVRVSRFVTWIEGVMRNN
plasmin, sequence (P00747 97-580 partner limits assumed, species assumed): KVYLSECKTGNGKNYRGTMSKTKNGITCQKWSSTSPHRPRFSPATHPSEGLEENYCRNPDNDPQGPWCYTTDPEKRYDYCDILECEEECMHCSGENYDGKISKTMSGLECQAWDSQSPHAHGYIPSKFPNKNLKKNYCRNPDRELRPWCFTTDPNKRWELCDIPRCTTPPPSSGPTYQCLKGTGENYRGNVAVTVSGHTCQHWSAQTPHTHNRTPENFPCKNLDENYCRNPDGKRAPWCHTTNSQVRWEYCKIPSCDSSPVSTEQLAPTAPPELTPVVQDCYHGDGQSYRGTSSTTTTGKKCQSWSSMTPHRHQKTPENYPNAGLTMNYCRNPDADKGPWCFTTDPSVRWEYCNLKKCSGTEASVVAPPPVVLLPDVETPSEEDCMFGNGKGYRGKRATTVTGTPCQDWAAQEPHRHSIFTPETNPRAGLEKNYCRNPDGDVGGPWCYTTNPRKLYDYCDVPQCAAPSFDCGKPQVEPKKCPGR
human Plasma Kallikrein, sequence (P03952 391-638 limits assumed): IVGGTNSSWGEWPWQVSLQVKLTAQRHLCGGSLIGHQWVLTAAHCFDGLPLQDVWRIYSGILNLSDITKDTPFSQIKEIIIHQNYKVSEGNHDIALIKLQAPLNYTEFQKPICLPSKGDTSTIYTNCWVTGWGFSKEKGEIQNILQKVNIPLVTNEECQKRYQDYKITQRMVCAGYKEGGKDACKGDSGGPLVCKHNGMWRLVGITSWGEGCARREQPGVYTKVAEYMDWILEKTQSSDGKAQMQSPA
human Plasma Kallikrein, sequence (P03952 20-390 partner limits assumed): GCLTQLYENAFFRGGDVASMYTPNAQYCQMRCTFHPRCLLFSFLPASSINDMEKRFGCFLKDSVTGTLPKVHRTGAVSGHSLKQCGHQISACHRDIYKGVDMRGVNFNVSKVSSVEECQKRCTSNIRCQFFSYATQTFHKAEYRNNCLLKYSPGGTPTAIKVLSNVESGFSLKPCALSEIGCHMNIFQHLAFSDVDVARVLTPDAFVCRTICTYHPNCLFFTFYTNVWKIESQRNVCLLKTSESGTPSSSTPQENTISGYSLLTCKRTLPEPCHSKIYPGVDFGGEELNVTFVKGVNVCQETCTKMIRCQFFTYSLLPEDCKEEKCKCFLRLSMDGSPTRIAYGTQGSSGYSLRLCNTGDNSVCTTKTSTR
T3 sequence (P00742 235-488 limits assumed): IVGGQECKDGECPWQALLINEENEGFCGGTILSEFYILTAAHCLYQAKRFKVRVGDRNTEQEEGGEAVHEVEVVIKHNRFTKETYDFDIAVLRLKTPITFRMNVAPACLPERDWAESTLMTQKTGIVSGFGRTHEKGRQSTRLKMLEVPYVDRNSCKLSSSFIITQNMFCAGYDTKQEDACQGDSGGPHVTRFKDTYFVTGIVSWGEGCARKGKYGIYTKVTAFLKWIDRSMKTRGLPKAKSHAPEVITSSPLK
T3 sequence (P00742 41-179 limits assumed): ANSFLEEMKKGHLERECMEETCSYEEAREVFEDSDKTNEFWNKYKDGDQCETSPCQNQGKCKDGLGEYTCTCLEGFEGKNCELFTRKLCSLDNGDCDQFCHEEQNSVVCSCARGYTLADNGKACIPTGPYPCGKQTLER

For `COC(=O)[C@@H]1C[C@@H](Oc2cccc(C(=N)N)c2)CN1` [compound 80], the Ki at human Plasma Kallikrein is 55 µM; on human Thrombin it was greater than 36.2 µM; at trypsin, 28.3 µM; at human Factor Xa, greater than 35.1 µM; in assay [1], greater than 39 µM; at plasmin, greater than 24.6 µM.

For `N=C(N)c1ccc(NC(=O)[C@@H]2C[C@@H](Oc3cccc(C(=N)N)c3)CN2C2CCCCC2)cc1` [compound 6], the Ki was 3.4 µM at human Plasma Kallikrein; 5.15 µM on trypsin; 2.41 µM at human Factor Xa; greater than 39 µM in assay [1]; 15 µM at plasmin.

Regarding `N=C(N)c1ccc(NC(=O)[C@@H]2C[C@@H](Oc3cccc(C(=N)N)c3)CN2Cc2ccc([N+](=O)[O-])cc2)cc1` [compound 22], the Ki on human Plasma Kallikrein was 3.4 µM; on human Thrombin, greater than 36 µM; at trypsin, 7.76 µM; at human Factor Xa it was 10.5 µM; in assay [1] it was greater than 39 µM; at plasmin it was 15 µM.

Turning to `N=C(N)c1cccc(O[C@@H]2C[C@@H](C(=O)N3CCc4ccccc4C3)N(S(=O)(=O)c3ccccc3)C2)c1` [compound 21], the Ki is 14.5 µM on human Thrombin, 20.2 µM at trypsin, 10.5 µM on human Factor Xa and greater than 39 µM in assay [1].

As for `N=C(N)c1cccc(O[C@@H]2C[C@@H](C(=O)N3CCc4ccccc4C3)N(C(=O)c3ccccc3)C2)c1` [compound 32], the Ki at trypsin is 7.84 µM; on human Factor Xa, 15.3 µM; in assay [1] it was greater than 399 µM.

Regarding `CN(Cc1ccccc1)C(=O)[C@@H]1C[C@@H](Oc2cccc(C(=N)N)c2)CN1Cc1ccccc1` [compound 15], the Ki at human Plasma Kallikrein is 34.2 µM; at human Thrombin, 11 µM; on trypsin, 2.26 µM; on human Factor Xa, 6.8 µM; in assay [1], 156 µM; on plasmin it was 15.4 µM.

On to `N=C(N)c1cccc(O[C@@H]2C[C@@H](C(=O)Nc3ccc(Cl)cc3)N(C(=O)c3ccccc3)C2)c1` [compound 17], for which the Ki on human Plasma Kallikrein is greater than 33.8 µM; on trypsin it was 3.6 µM; at human Factor Xa, 7.88 µM; in assay [1], greater than 39 µM.

For the compound `CS(=O)(=O)N1C[C@H](Oc2cccc(C(=N)N)c2)C[C@H]1C(=O)Nc1ccc(Cl)cc1` [compound 52], the Ki was 27 µM at human Plasma Kallikrein; greater than 36.2 µM at human Thrombin; 40.5 µM on trypsin; greater than 39 µM in assay [1]; greater than 24.5 µM at plasmin.

As for `CC(=O)N1C[C@H](Oc2cccc(C(=N)N)c2)C[C@H]1C(=O)Nc1ccc(C(=N)N)cc1` [compound 14], the Ki is greater than 36.2 µM on human Thrombin; 10.1 µM at trypsin; 6.61 µM at human Factor Xa; greater than 39 µM in assay [1]; greater than 24.5 µM on plasmin.

On to `C=CCOC(=O)[C@@H]1C[C@@H](Oc2cccc(C(=N)N)c2)CN1C(=O)c1ccccc1` [compound 36], for which the Ki on human Plasma Kallikrein was greater than 33.8 µM; on human Thrombin, 21.7 µM; at trypsin it was 4.26 µM; on human Factor Xa, 19.9 µM and 14 µM.

As to `C=CCOC(=O)[C@@H]1C[C@@H](Oc2cccc(C(=N)N)c2)CN1C(C)=O` [compound 76], the Ki at human Plasma Kallikrein was greater than 33.8 µM; on human Thrombin it was greater than 36.2 µM; on trypsin, 30.3 µM; at plasmin, greater than 24.5 µM.

With `N=C(N)c1ccc(NC(=O)[C@@H]2C[C@@H](Oc3cccc(C(=N)N)c3)CN2Cc2ccccc2[N+](=O)[O-])cc1` [compound 7], the Ki on human Plasma Kallikrein was 20 µM; at human Thrombin, 25 µM; at trypsin it was 2.22 µM; at human Factor Xa, 2.49 µM; in assay [1], greater than 39 µM; on plasmin, 7 µM.

Regarding `COc1cc2c(cc1OC)CN(C(=O)[C@@H]1C[C@@H](Oc3cccc(C(=N)N)c3)CN1)CC2` [compound 11], the Ki is 0.979 µM at human Plasma Kallikrein; 0.875 µM at human Thrombin; 0.607 µM on trypsin; 5.84 µM at human Factor Xa; 7.36 µM at plasmin.

Regarding `CCCN1C[C@H](Oc2cccc(C(=N)N)c2)C[C@H]1C(=O)Nc1ccc(C(=N)N)cc1` [compound 1], the Ki was found to be 6.56 µM on human Plasma Kallikrein; 4.74 µM on human Thrombin; 0.866 µM on trypsin; 0.297 µM at human Factor Xa; 7.8 µM in assay [1]; 7.36 µM on plasmin.

Regarding `N=C(N)c1cccc(O[C@H]2CN[C@H](C(=O)Nc3ccccc3)C2)c1` [compound 79], the Ki at human Thrombin is greater than 36 µM; on trypsin it was 20 µM; on human Factor Xa, greater than 35 µM; in assay [1], 19 µM; on plasmin, 24 µM.

Consider `N=C(N)c1ccc(NC(=O)[C@@H]2C[C@@H](Oc3cccc(C(=N)N)c3)CN2Cc2ccccc2[N+](=O)[O-])cc1` [compound 5], for which the Ki on human Plasma Kallikrein was 16 µM; on human Thrombin, 14.5 µM; on trypsin it was 2.14 µM; on human Factor Xa, 2.13 µM; in assay [1] it was greater than 39 µM; on plasmin it was 7 µM.

`C=CCOC(=O)[C@@H]1C[C@@H](Oc2cccc(C(=N)N)c2)CN1Cc1ccccc1` [compound 60]: the Ki at trypsin stood at 4.99 µM.

For `C=CCOC(=O)[C@@H]1C[C@@H](Oc2cccc(C(=N)N)c2)CN1` [compound 27], the Ki on trypsin is 14.1 µM; on human Factor Xa it was 14 µM; in assay [1], 15.6 µM; on plasmin, greater than 24.6 µM.

Turning to `CCCCCCN1C[C@H](Oc2cccc(C(=N)N)c2)C[C@H]1C(=O)Nc1ccc(C(=N)N)cc1` [compound 16], the Ki at human Plasma Kallikrein was 17 µM; on human Thrombin, 29 µM; on trypsin it was 6.07 µM; on human Factor Xa, 6.81 µM; in assay [1] it was greater than 39 µM; on plasmin, 12 µM.

Take `N=C(N)c1cccc(O[C@H]2CN[C@H](C(=O)Nc3ccc4ccccc4c3)C2)c1` [compound 29]: the Ki is 14.2 µM at human Factor Xa and 117 µM in assay [1].

In the case of `N=C(N)c1cccc(O[C@H]2CN[C@H](C(=O)N3CCCCC3CCO)C2)c1` (stereo partly shown) [compound 62], the Ki is 64.6 µM on human Factor Xa and greater than 390 µM in assay [1].

For `N=C(N)c1cccc(O[C@H]2CN[C@H](C(=O)Nc3cccc(C(F)(F)F)c3)C2)c1` [compound 45], the results for the Ki (on human Factor Xa; in assay [1]) were 26.3 µM and 150 µM, respectively.

In the case of `CC(C)[C@@H](NC(=O)[C@@H]1C[C@@H](Oc2cccc(C(=N)N)c2)CN1)C(=O)O` [compound 72], the figures for the Ki (on human Factor Xa; in assay [1]) were 132 µM and no less than 390 µM, respectively.

For `N=C(N)c1cccc(O[C@H]2CN[C@H](C(=O)N3CCCCC3)C2)c1` [compound 35], the Ki on human Factor Xa was 19.7 µM; in assay [1], 94 µM.

For `N#Cc1ccccc1NC(=O)[C@@H]1C[C@@H](Oc2cccc(C(=N)N)c2)CN1` [compound 42], the Ki on human Factor Xa turned out to be 24.4 µM; in assay [1] it was 89 µM.

As for `Cc1ccc(CNC(=O)[C@@H]2C[C@@H](Oc3cccc(C(=N)N)c3)CN2)cc1` [compound 9], the Ki on human Factor Xa is 5.13 µM; in assay [1], no less than 390 µM.

Consider `COc1ccc(CNC(=O)[C@@H]2C[C@@H](Oc3cccc(C(=N)N)c3)CN2)cc1` [compound 8], for which the figures for the Ki (at human Factor Xa; in assay [1]) were 3.32 µM and no less than 390 µM, respectively.

`N=C(N)c1cccc(O[C@H]2CN[C@H](C(=O)NCCc3ccccc3)C2)c1` [compound 41]: the Ki was found to be 24.3 µM at human Factor Xa and 187 µM in assay [1].
